The record followed here is ChEMBL document CHEMBL1268953, “Discovery of novel 2-aryl-4-benzoyl-imidazoles targeting the colchicines binding site in tubulin as potential anticancer agents” (J Med Chem, 2010).

The subject of one data set is LNCaP. The data set is described as follows: Cytotoxicity against human LNCAP cells after 48 hrs by sulforhodamine B assay. It is filed as functional, cell-based.
Data set [1] is described as follows: Cytotoxicity against mouse B16-F1 cells after 48 hrs by sulforhodamine B assay. It is filed as functional, cell-based. As to conditions: Mus musculus, B16-F1, 48 h. (In general: The SRB assay estimates cell density from bound dye.)
The next data set has as its system A-375. Description: Cytotoxicity against human A375 cells after 48 hrs by sulforhodamine B assay. The data set is classed as functional, cell-based. As to conditions: Homo sapiens, A-375, 48 h.
Data set [2] can be described thus: Cytotoxicity against human WM164 cells after 48 hrs by sulforhodamine B assay. As to conditions: Homo sapiens, WM164, 48 h. The data set is classed as functional, cell-based.
The test system of the next data set is DU-145. The data set is described as follows: cells. Conditions: Homo sapiens, DU-145, 48 h.
For another data set, the system named is PPC-1. The data set is described as follows: Cytotoxicity against human PPC1 cells after 48 hrs by sulforhodamine B assay. It is filed as functional, cell-based. As to conditions: Homo sapiens, PPC-1, 48 h.
The next data set relates to PC-3. The data set is described as follows: cells. Conditions: Homo sapiens, PC-3, 48 h.
The nature of data set [3]: Cytotoxicity against human multidrug-resistant MDA-MB-435/LCCMDR1 cells after 48 hrs by sulforhodamine B assay. It is filed as functional, cell-based. Conditions: MDA-MB-435, 48 h.
The test system of a further data set is MDA-MB-435. Description: cells. Conditions: Homo sapiens, MDA-MB-435, 48 h.
Data set [4] has as its system Mus musculus. The data set is described as follows: Toxicity in mouse B16-F1 cells xenografted C57/BL mouse assessed as reduction of body weight at 10 mg/kg, ip administered 7 days after tumor inoculation qd for 14 days. Also on record: dose 10 mg/kg, route intraperitoneal. It is filed as organism-based. As to conditions: in vivo.
Data set [5] deals with Mus musculus. Description: Toxicity in mouse B16-F1 cells xenografted C57/BL mouse assessed as reduction of body weight at 30 mg/kg, ip administered 7 days after tumor inoculation qd for 14 days. The data set is classed as organism-based. Also on record: dose 30 mg/kg, route intraperitoneal. As to conditions: in vivo.
Data set [6] can be described thus: Aqueous solubility of the compound in water after 24 hrs by shake-flask method. It is filed as physicochemical.
Data set [7] in a line: Aqueous solubility of the compound in buffer at pH 7 after 24 hrs by shake-flask method. It is filed as physicochemical.
Data set [8] can be described thus: Antitumor activity against mouse B16-F1 cells xenografted in C57/BL mouse assessed as reduction of tumor growth at 60 mg/kg, ip administered 7 days after tumor inoculation qd for 14 days. It is filed as functional. Also on record: scale not given: the % may be the effect or the level left. As to conditions: route intraperitoneal.
The test system of data set [9] is Mus musculus. The data set is described as follows: Toxicity in mouse B16-F1 cells xenografted C57/BL mouse assessed as reduction of body weight at 60 mg/kg, ip administered 7 days after tumor inoculation qd for 14 days. As to conditions: in vivo. Also on record: dose 60 mg/kg, route intraperitoneal. The data set is classed as organism-based.

As usually defined, the IC50 is the concentration that inhibits the measured activity by half. By solubility (thermodynamic) is commonly meant solubility found after equilibrating the solid with the medium.

Each structure is given as a SMILES string. Values after ≈ are worked out from the molar mass of the structure shown.

Description for DU-145: Cytotoxicity against human DU145 cells after 48 hrs by sulforhodamine B assay
Description for MDA-MB-435: Cytotoxicity against human MDA-MB-435 cells after 48 hrs by sulforhodamine B assay
Description for PC-3: Cytotoxicity against human PC3 cells after 48 hrs by sulforhodamine B assay

Regarding `O=C(c1cc(O)c(O)c(O)c1)c1c[nH]c(-c2cc(O)c(O)c(O)c2)n1`, the IC50 (with LNCaP; in data set [1]; in the data set on A-375; in data set [2]; in the data set with DU-145; in the data set on PPC-1) was greater than 10 µM throughout. The IC50 in the data set on PC-3 was greater than 10 µM.

Turning to `O=C(c1ccc(F)cc1)c1c[nH]c(-c2ccc(OCc3ccccc3)cc2)n1`, the IC50 in the data set on LNCaP was found to be 0.044 µM; in data set [1], 0.117 µM; in the data set on A-375, 0.093 µM; in [2] it was 0.09 µM; in the data set on DU-145 it was 0.06 µM; in the data set on PPC-1, 0.043 µM. In the data set on PC-3, this compound showed an IC50 of 0.079 µM.

In the case of `O=C(c1cc(O)c(O)c(O)c1)c1c[nH]c(-c2ccc(O)c(O)c2)n1`, the IC50 (in the data set on LNCaP; in data set [1]; with A-375; in [2]; in the data set with DU-145; with PPC-1) was greater than 10 µM each time. The compound further yielded an IC50 in the data set on PC-3 greater than 10 µM.

On to `COc1ccc(C(=O)c2cnc(-c3ccccc3)n2S(=O)(=O)c2ccccc2)cc1`, for which the IC50 (with LNCaP; in data set [1]; with A-375; in data set [2]; with DU-145; with PPC-1) was greater than 10 µM throughout. Further, the IC50 in the data set with PC-3 was greater than 10 µM.

For the compound `COc1cccc(C(=O)c2cnc(-c3ccccc3)n2S(=O)(=O)c2ccccc2)c1`, the IC50 (in the data set with LNCaP; in data set [1]; in the data set with A-375; in data set [2]; in the data set on DU-145; in the data set on PPC-1) was greater than 10 µM throughout. Besides, the IC50 in the data set on PC-3 is greater than 10 µM.

Take `Cc1ccc(C(=O)c2cnc(-c3ccccc3)n2S(=O)(=O)c2ccccc2)cc1`: the IC50 (with LNCaP; in data set [1]; in the data set on A-375; in [2]; in the data set with DU-145; in the data set on PPC-1) was greater than 10 µM throughout. This compound registered an IC50 in the data set with PC-3 greater than 10 µM.

Consider `O=C(c1ccc(F)cc1)c1cnc(-c2ccccc2)n1S(=O)(=O)c1ccccc1`, for which the IC50 in the data set with LNCaP turned out to be 0.573 µM; in data set [1] it was 0.946 µM; in the data set on A-375, 0.63 µM; in data set [2], 0.596 µM; with DU-145 it was 0.846 µM; in the data set with PPC-1, 0.575 µM. Besides, the IC50 in the data set with PC-3 came to 2.23 µM.

As for `O=C(c1cccc(F)c1)c1cnc(-c2ccccc2)n1S(=O)(=O)c1ccccc1`, the IC50 (in the data set with LNCaP; in data set [1]; with A-375; in data set [2]; in the data set with DU-145; with PPC-1) was greater than 10 µM each time. The IC50 in the data set with PC-3 was greater than 10 µM.

As for `COc1ccc(-c2ncc(C(=O)c3ccc(F)cc3)n2S(=O)(=O)c2ccccc2)cc1`, the IC50 in the data set on LNCaP worked out at 0.031 µM; in [1], 0.071 µM; in the data set with A-375 it was 0.036 µM; in data set [2] it was 0.043 µM; in the data set on DU-145, 0.052 µM; in data set [3], 0.038 µM. Moreover, the results for the IC50 with MDA-MB-435, in the data set with PPC-1 and in the data set with PC-3 were 0.03 µM, 0.032 µM and 0.033 µM, respectively.

Consider `COc1cc(C(=O)c2cnc(-c3cc(OC)c(OC)c(OC)c3)n2S(=O)(=O)c2ccccc2)cc(OC)c1OC`, for which the IC50 (with LNCaP; in data set [1]; in the data set on A-375; in [2]; in the data set with DU-145; in the data set on PPC-1) was greater than 10 µM each time. This compound had an IC50 in the data set on PC-3 greater than 10 µM.

For the compound `COc1cc(-c2ncc(C(=O)c3ccc(F)cc3)n2S(=O)(=O)c2ccccc2)cc(OC)c1OC`, the IC50 with LNCaP was greater than 10 µM; in data set [1] it was greater than 10 µM; with A-375, 3.84 µM; in [2], greater than 10 µM; with DU-145, greater than 10 µM; in the data set on PPC-1, greater than 10 µM. Further, the IC50 in the data set with PC-3 was greater than 10 µM.

As to `O=C(c1ccc(F)cc1)c1cnc(-c2ccc(Cl)cc2)n1S(=O)(=O)c1ccccc1`, the IC50 in the data set with LNCaP stood at 0.048 µM; in data set [1], 0.107 µM; with A-375, 0.088 µM; in [2], 0.07 µM; in the data set with DU-145, 0.064 µM; in the data set with PPC-1 it was 0.054 µM. The same compound displayed an IC50 in the data set with PC-3 of 0.076 µM.

Regarding `COc1ccc(-c2nc(C(=O)c3ccc(F)cc3)c[nH]2)cc1`, the Activity result in the data set on Mus musculus [4] and in the data set on Mus musculus [5] was “Non-toxic” throughout. The same compound showed an IC50 in the data set with MDA-MB-435 of 0.03 µM.

For `CN(C)c1ccc(-c2ncc(C(=O)c3ccc(F)cc3)n2S(=O)(=O)c2ccccc2)cc1`, the IC50 in the data set with LNCaP turned out to be 0.056 µM; in data set [1], 0.242 µM; in the data set with A-375 it was 0.055 µM; in data set [2], 0.056 µM; in the data set on DU-145, 0.074 µM; in the data set with PPC-1, 0.048 µM. Besides, in the data set on PC-3, it took 0.083 µM to reach half-maximal inhibition (IC50).

Take `COc1ccc(-c2ncc(C(=O)c3ccc(F)cc3)n2S(=O)(=O)c2ccccc2)cc1OC`: the IC50 came to 1.92 µM with LNCaP; 2 µM in data set [1]; 0.96 µM with A-375; 1.4 µM in data set [2]; 3.31 µM with DU-145; 1.44 µM in the data set with PPC-1. The same compound returned an IC50 in the data set with PC-3 of 10 µM.

For the compound `COc1cc(C(=O)c2cnc(-c3ccccc3C(F)(F)F)n2S(=O)(=O)c2ccccc2)cc(OC)c1OC`, the IC50 (in the data set with LNCaP; in data set [1]; in the data set on A-375; in [2]; in the data set on DU-145; in the data set with PPC-1) was greater than 10 µM throughout. Moreover, the IC50 in the data set on PC-3 was greater than 10 µM.

Turning to `O=C(c1ccc(F)cc1)c1cnc(-c2ccccc2C(F)(F)F)n1S(=O)(=O)c1ccccc1`, the IC50 (with LNCaP; in data set [1]; with A-375; in [2]; in the data set on DU-145; in the data set on PPC-1) was greater than 10 µM each time. The same compound displayed an IC50 in the data set on PC-3 greater than 10 µM.

Take `O=C(c1ccc(F)cc1)c1cnc(-c2ccc(OCc3ccccc3)cc2)n1S(=O)(=O)c1ccccc1`: the IC50 in the data set on LNCaP turned out to be 0.035 µM; in [1], 0.11 µM; in the data set on A-375, 0.064 µM; in data set [2], 0.048 µM; in the data set with DU-145 it was 0.058 µM; with PPC-1, 0.038 µM. The compound further came in with an IC50 with PC-3 of 0.075 µM.

Turning to `COc1cc(C(=O)c2csc(-c3ccc(N(C)C)cc3)n2)cc(OC)c1OC`, the thermodynamic solubility at 24 h in [6] was 0.833 µg/mL (≈ 2.09 µM); in [7] it was 0.909 µg/mL (≈ 2.28 µM).

Regarding `COc1cc(C(=O)c2c[nH]c(-c3ccc(N(C)C)cc3)n2)cc(OC)c1OC`, the IC50 in the data set with LNCaP was 0.058 µM; in data set [1] it was 0.361 µM; with A-375, 0.082 µM; in [2], 0.08 µM; with DU-145 it was 0.095 µM; in the data set with PPC-1, 0.067 µM. The IC50 in the data set with PC-3 is 0.092 µM. For the same compound, the solubility (thermodynamic) at 24 h in [6] came out at 11.3 µg/mL (≈ 29.6 µM); in data set [7] it was 48.9 µg/mL (≈ 128 µM).

Regarding `COc1ccc(/C=C\c2cc(OC)c(OC)c(OC)c2)cc1O` [COMBRETASTATIN A4], the solubility (thermodynamic) at 24 h in [6] is 2.83 µg/mL (≈ 8.95 µM); in data set [7], 1.04 µg/mL (≈ 3.29 µM).

For `CN(C)/N=N/c1[nH]cnc1C(N)=O` [DACARBAZINE], the Activity in data set [8] is on record as 51%; in the data set on Mus musculus [9], “Non-toxic”.

As to `CC(=O)O[C@H]1C(=O)[C@@]2(C)[C@H]([C@H](OC(=O)c3ccccc3)[C@]3(O)C[C@H](OC(=O)[C@H](O)[C@@H](NC(=O)c4ccccc4)c4ccccc4)C(C)=C1C3(C)C)[C@]1(OC(C)=O)CO[C@@H]1C[C@@H]2O` [PACLITAXEL], the thermodynamic solubility at 24 h in data set [6] was found to be 0.021 µg/mL (≈ 0.0246 µM); in [7], 0.137 µg/mL (≈ 0.16 µM).
